Measurements published in patent US11332450B2, “Isoxazole as FXR receptor agonists” (Bar Pharmaceuticals Societa' A Responsabilita' Limitata, priority 2018, dated 2022).

What was measured:
[1] = system: SHP mRNA; test: SHP mRNA expression in HepG2 cells (RT-PCR); format: cell-based, human
Procedure: RNA isolation and RT-PCR. HepG2 cells were plated at the density of 1×10^6 cells/flask in T25 flask. […] Total RNA was isolated from HepG2 cells or liver tissue using the TRIzol reagent according to the manufacturer's specifications (Invitrogen). One microgram of purified RNA was treated with DNase-I and reverse transcribed with QuantiTect Reverse Transcription Kit (Qiagen). For Real Time PCR, 10 ng template was dissolved in 25 μL containing 200 nmol/L of each primer and 12.5 μL of 2×SYBR FAST Universal ready mix (Invitrogen). All reactions were performed in triplicate, and the thermal cycling conditions were as follows: 2 min at 95° C., followed by 40 cycles of 95° C. for 20 s and 60° C. for 30 s in StepOnePlus (Applied Biosystems). The relative mRNA expression was calculated in accord to the Ct method. Forward and reverse primer sequences were the following: human GAPDH: [NT] (SEQ ID: 1) and [NT] (SEQ ID: 2); human SHP: [NT] (SEQ ID: 3) and [NT] (SEQ ID: 4); mouse GAPDH, [NT] (SEQ ID: 5) and [NT] (SEQ ID: 6); mouse SHP [NT] (SEQ ID: 7) and [NT] (SEQ ID: 8); mouse FXR: [NT] (SEQ ID: 9) and [NT] (SEQ ID: 10); mouse BSEP: [NT] (SEQ ID: 11) and [NT] (SEQ ID: 12).

[2] = system: liver SHP mRNA; test: Liver SHP mRNA expression in mice after administration of compound; format: in vivo, mouse; conditions: administered per os, 10 mg/kg daily for 3 days
Procedure: (§1) Total RNA was isolated from HepG2 cells or liver tissue using the TRIzol reagent according to the manufacturer's specifications (Invitrogen). One microgram of purified RNA was treated with DNase-I and reverse transcribed with QuantiTect Reverse Transcription Kit (Qiagen). For Real Time PCR, 10 ng template was dissolved in 25 μL containing 200 nmol/L of each primer and 12.5 μL of 2×SYBR FAST Universal ready mix (Invitrogen). All reactions were performed in triplicate, and the thermal cycling conditions were as follows: 2 min at 95° C., followed by 40 cycles of 95° C. for 20 s and 60° C. for 30 s in StepOnePlus (Applied Biosystems). The relative mRNA expression was calculated in accord to the Ct method. Forward and reverse primer sequences were the following: human GAPDH: [NT] (SEQ ID: 1) and [NT] (SEQ ID: 2); human SHP: [NT] (SEQ ID: 3) and [NT] (SEQ ID: 4); mouse GAPDH, [NT] (SEQ ID: 5) and [NT] (SEQ ID: 6); mouse SHP [NT] (SEQ ID: 7) and [NT] (SEQ ID: 8); mouse FXR: [NT] (SEQ ID: 9) and [NT] (SEQ ID: 10); mouse BSEP: [NT] (SEQ ID: 11) and [NT] (SEQ ID: 12). C57BL/6N male mice were from The Jackson's Laboratory. […] The general health of the animals was monitored daily by the Veterinarian in the animal facility. […]

[3] = system: liver BSEP mRNA; test: Liver BSEP mRNA expression in mice after administration of compound; format: in vivo, mouse; conditions: administered per os, 10 mg/kg daily for 3 days
Procedure: as §1

[4] = Microsomal stability in mouse liver microsomes; format: in vitro ADME; conditions: male CD-1 mouse liver microsomes, 1 μM compound, 37° C.
Procedure: Male mouse (CD-1) liver microsomes (Sigma-Aldrich) were used. All incubations were performed in duplicate in a shaking water bath at 37° C. […] Aliquots were removed at 0, 5, 10, 20, 30, and 40 min after microsome addition and the reaction was stopped by adding 200 μL of ice-cold acetonitrile. After 2 h, the samples were centrifuged for 10 min at 10000 rpm, and the supernatants were transferred in matrix tubes for LC-MS/MS analysis. Propranolol, known as a high hepatic clearance drug in rodents, was used as a quality-control compound for the microsomal incubations. The slope of the linear regression of the curve obtained reporting the natural logarithm of compound area versus incubation time (−k) was used in the conversion to in vitro t1/2 values by t1/2=−ln(2)/k. In vitro intrinsic clearance (CLint expressed as μL/min/mg) was calculated according to the following formula: Clint=volume of reaction (μL)/t1/2 (min)/protein of liver microsomes (mg).

[5] = rats, oral administration; cited from earlier work
[6] = ascribed to the stilbene moiety; cited from earlier work

| Structure (SMILES) | SHP mRNA expression induction ([1]; 5 μM concentration, 18 h) | liver SHP mRNA expression [2] | liver BSEP mRNA expression [3] | Clint [4] | t1/2 [4] | SHP mRNA expression induction ([1]; reference compound at 10 μM concentration) | intestinal absorption [5] | terminal half-life [5] | UV light stability [6] |
| --- | --- | --- | --- | --- | --- | --- | --- | --- | --- |
| CC(C)c1onc(-c2c(Cl)cccc2Cl)c1COc1ccc(COc2ccc(C(=O)O)cc2)cc1 [BAR2109, 4-((4-((3-(2,6-dichlorophenyl)-5-isopropylisoxazol-4-yl)methoxy)benzyl)oxy)benzoic Acid] | 6.8 times | inducing | inducing |  |  |  |  |  |  |
| CC(C)c1onc(-c2c(Cl)cccc2Cl)c1COc1ccc(COc2cccc(C(=O)O)c2)cc1 [BAR2123, 3-((4-((3-(2,6-dichlorophenyl)-5-isopropylisoxazol-4-yl)methoxy)benzyl)oxy)benzoic Acid] | 6.2 times |  |  |  |  |  |  |  |  |
| CC(C)c1onc(-c2c(Cl)cccc2Cl)c1COc1ccc(/C=C/c2cccc(C(=O)O)c2)c(Cl)c1 [GW4064] |  |  |  | 56 µL/min/mg | 41 min | 4.2 times | < 10% | short | UV light instability |
